Converted amounts (≈) assume the structure as drawn.
Legend:
[1] = Cmax in Swiss Webster mouse at 25 mg/kg, po; assay type: ADME, organism-based; set-up: dose 25 mg/kg, route oral; conditions: in vivo
[2] = Clearance in Swiss Webster mouse at 10 mg/kg, iv; conditions: in vivo
[3] = Half life in Swiss Webster mouse at 10 mg/kg, po; assay type: ADME, organism-based; set-up: dose 10 mg/kg, route oral; conditions: in vivo
[4] = AUC (infinity) in Swiss Webster mouse at 50 mg/kg, po; assay type: ADME, organism-based; set-up: time infinity, dose 50 mg/kg, route oral; conditions: plasma
[5] = AUC (infinity) in Swiss Webster mouse at 10 mg/kg, po; assay type: ADME, organism-based; set-up: time infinity, dose 10 mg/kg, route oral; conditions: plasma
[6] = Apparent volume of distribution with respect to bioavailability in Swiss Webster mouse at 10 mg/kg, po; assay type: ADME, organism-based; conditions: in vivo, read-out: Vc/F
[7] = Solubility at pH 4 to […]; assay type: physicochemical; conditions: buffer
[8] = system: Mus musculus; experiment: Toxicity in nu/nu mouse assessed as effect on body weight at 5 to 50 mg/kg, po; assay type: organism-based; set-up: dose 5-50 mg/kg, route oral; conditions: in vivo
[9] = Apparent volume of distribution with respect to bioavailability in Swiss Webster mouse at 25 mg/kg, po; assay type: ADME, organism-based; conditions: in vivo, read-out: Vc/F
[10] = Tmax in Swiss Webster mouse at 50 mg/kg, po; assay type: ADME, organism-based; set-up: dose 50 mg/kg, route oral; conditions: in vivo
[11] = system: HCT-15; experiment: Antiproliferative activity against human HCT15 cells after 72 to 144 hrs by cyquant DNA dye method; assay type: functional, cell-based
[12] = Apparent oral clearance in Swiss Webster mouse at 10 mg/kg, po; assay type: ADME, organism-based; set-up: dose 10 mg/kg, route oral; conditions: in vivo
[13] = system: MDA-MB-231; experiment: Antiproliferative activity against human MDA-MB-231 cells after 72 to 144 hrs by cyquant DNA dye method; assay type: functional, cell-based
[14] = system: SW-620; experiment: Antiproliferative activity against human SW620 cells after 72 to 144 hrs by cyquant DNA dye method; assay type: functional, cell-based
[15] = Apparent volume of distribution with respect to bioavailability in Swiss Webster mouse at 50 mg/kg, po; assay type: ADME, organism-based; conditions: in vivo, read-out: Vc/F
[16] = system: SK-MEL-5; experiment: Antiproliferative activity against human SK-MEL-5 cells after 72 to 144 hrs by cyquant DNA dye method; assay type: functional, cell-based
[17] = system: NCI-H460; experiment: Antiproliferative activity against human NCI-H460 cells after 72 to 144 hrs by cyquant DNA dye method; assay type: functional, cell-based
[18] = Tmax in Swiss Webster mouse at 10 mg/kg, iv; assay type: ADME, organism-based; set-up: dose 10 mg/kg, route intravenous; conditions: in vivo
[19] = system: HT-29; experiment: Antiproliferative activity against human HT-29 cells after 72 to 144 hrs by cyquant DNA dye method; assay type: functional, cell-based
[20] = system: MCF7; experiment: Antiproliferative activity against human MCF7 cells after 72 to 144 hrs by cyquant DNA dye method; assay type: functional, cell-based
[21] = system: Mus musculus; experiment: Apparent volume of distribution with respect to bioavailability in Swiss Webster mouse at 10 mg/kg, iv; assay type: ADME, organism-based; conditions: in vivo
[22] = system: PC-3; experiment: Antiproliferative activity against human PC3 cells after 72 to 144 hrs by cyquant DNA dye method; assay type: functional, cell-based
[23] = system: HT-29; experiment: Antitumor activity against human HT-29 cells xenografted nu/nu mouse assessed as tumor growth delay at 50 mg/kg, po administered 3 times a week for 3 weeks; assay type: functional
[24] = Half life in Swiss Webster mouse at 10 mg/kg, iv; assay type: ADME, organism-based; set-up: dose 10 mg/kg, route intravenous; conditions: in vivo
[25] = system: Mus musculus; experiment: Toxicity in nu/nu mouse assessed as mortality at 5 to 50 mg/kg, po; assay type: organism-based; set-up: dose 5-50 mg/kg, route oral; conditions: in vivo
[26] = target: T1, Heat shock protein HSP90 (Homo sapiens, UniProt P07900+P08238); conditions: a-375
Description: Inhibition of Hsp90 in human A375 cells assessed as Hsp70 induction after 24 hrs by high content screening

[27] = Apparent oral clearance in Swiss Webster mouse at 50 mg/kg, po; assay type: ADME, organism-based; set-up: dose 50 mg/kg, route oral; conditions: in vivo
[28] = system: A-375; experiment: Antiproliferative activity against human A375 cells after 72 to 144 hrs by cyquant DNA dye method; assay type: functional, cell-based
[29] = system: K562; experiment: Antiproliferative activity against human K562 cells after 72 to 144 hrs by cyquant DNA dye method; assay type: functional, cell-based
[30] = Cmax in Swiss Webster mouse at 10 mg/kg, iv; assay type: ADME, organism-based; set-up: dose 10 mg/kg, route intravenous; conditions: in vivo
[31] = system: HT-29; experiment: Antitumor activity against human HT-29 cells xenografted nu/nu mouse assessed as tumor growth delay at 25 mg/kg, po administered 3 times a week for 3 weeks; assay type: functional
[32] = Apparent oral clearance in Swiss Webster mouse at 25 mg/kg, po; assay type: ADME, organism-based; set-up: dose 25 mg/kg, route oral; conditions: in vivo
[33] = Half life in Swiss Webster mouse at 25 mg/kg, po; assay type: ADME, organism-based; set-up: dose 25 mg/kg, route oral; conditions: in vivo
[34] = system: HT-29; experiment: Antitumor activity against human HT-29 cells xenografted nu/nu mouse assessed as median time for tumor to reach end point at 50 mg/kg, po administered 3 times a week for 3 weeks; assay type: functional
[35] = Binding affinity to pig spleen Hsp90 ATPase pocket by Bradford assay; assay type: tissue-based, Sus scrofa
[36] = Cmax in Swiss Webster mouse at 10 mg/kg, po; assay type: ADME, organism-based; set-up: dose 10 mg/kg, route oral; conditions: in vivo
[37] = Cmax in Swiss Webster mouse at 50 mg/kg, po; assay type: ADME, organism-based; set-up: dose 50 mg/kg, route oral; conditions: in vivo
[38] = target: T1, Heat shock protein HSP90; assay type: cell-based; conditions: au565
[39] = AUC (infinity) in Swiss Webster mouse at 10 mg/kg, iv; assay type: ADME, organism-based; set-up: time infinity, dose 10 mg/kg, route intravenous; conditions: plasma
[40] = target: T1, Heat shock protein HSP90; conditions: au565
Description: Inhibition of Hsp90 in human AU565 cells assessed as pERK degradation after 24 hrs by high content screening

[41] = system: LNCaP; experiment: Antiproliferative activity against human LNCAP cells after 72 to 144 hrs by cyquant DNA dye method; assay type: functional, cell-based
[42] = AUC (infinity) in Swiss Webster mouse at 25 mg/kg, po; assay type: ADME, organism-based; set-up: time infinity, dose 25 mg/kg, route oral; conditions: plasma
[43] = Tmax in Swiss Webster mouse at 10 mg/kg, po; assay type: ADME, organism-based; set-up: dose 10 mg/kg, route oral; conditions: in vivo
[44] = target: T1, Heat shock protein HSP90; conditions: a-375; remark: listed apart in the source
Description: Inhibition of Hsp90 in human A375 cells assessed as pS6 degradation after 24 hrs by high content screening

[45] = Tmax in Swiss Webster mouse at 25 mg/kg, po; assay type: ADME, organism-based; set-up: dose 25 mg/kg, route oral; conditions: in vivo
[46] = Half life in Swiss Webster mouse at 50 mg/kg, po; assay type: ADME, organism-based; set-up: dose 50 mg/kg, route oral; conditions: in vivo
[47] = Metabolic stability in human liver S9 fraction assessed as drug remaining at 1 uM after 1 hr; assay type: ADME, subcellular; conditions: read-out: Stability
[48] = system: Liver microsomes; experiment: Metabolic stability in human liver microsomes at 1 uM after 1 hr; assay type: ADME, Microsome
[49] = Solubility of the compound; assay type: physicochemical
[50] = Oral bioavailability in mouse; assay type: ADME, organism-based; conditions: in vivo
[51] = Aqueous solubility in phosphate-buffered saline at pH 7.4; assay type: physicochemical

In the case of `CC1(C)CC(=O)c2c(C(F)(F)F)nn(-c3ccc(C(N)=O)c(N[C@H]4CC[C@H](OC(=O)CN)CC4)c3)c2C1.CS(=O)(=O)O`, the Cmax [1] is reported as 2150 ng/mL, the clearance [2] is reported as 34.2 mL/min/kg and the half-life [3] is reported as 2.5 h. It also gave an AUC(0-inf) [4] of 25200 ng·h/mL, an AUC(0-inf) [5] of 3970 ng·h/mL and a Vd/F [6] of 8.93 L/kg. For the same molecule, the solubility [7] was 1000 µg/mL, the Activity [8] was “Non-toxic” and the Vd/F [9] was 9.59 L/kg. The Tmax [10] was 2 h, the IC50 [11] was 190 nM and the CL/F [12] was 42 mL/min/kg. It also gave an IC50 [13] of 38 nM, an IC50 [14] of 19 nM and a Vd/F [15] of 9.55 L/kg. For the same molecule, the IC50 [16] was 25 nM, the IC50 [17] was 215 nM and the Tmax [18] was 4.98 min. It also gave an IC50 [19] of 32 nM, an IC50 [20] of 16 nM and a Vc/F [21] of 7.846 L/kg. The IC50 [22] was 114 nM, the Activity [23] was 67% and the half-life [24] was 2.6 h. For the same molecule, the Activity [25] was “Non-toxic”, the IC50 [26] was 13 nM and the CL/F [27] was 33.1 mL/min/kg. The IC50 [28] was 51 nM, the IC50 [29] was 23 nM and the Cmax [30] was 4460 ng/mL. The Activity [31] was 14%, the CL/F [32] was 37.9 mL/min/kg and the half-life [33] was 2.9 h. The Activity [34] was 43.2 days, the Kd [35] was 41 nM and the Cmax [36] was 747 ng/mL. The Cmax [37] was 4020 ng/mL, the IC50 [38] was 5 nM and the AUC(0-inf) [39] was 4870 ng·h/mL. The IC50 [40] was 11 nM, the IC50 [41] was 31 nM and the AUC(0-inf) [42] was 11000 ng·h/mL. It also gave a Tmax [43] of 1 h, an IC50 [44] of 61 nM and a Tmax [45] of 1 h. It also gave a half-life [46] of 3.3 h.
For `CC1(C)CC(=O)c2c(C(F)(F)F)nn(-c3ccc(C(N)=O)c(N[C@H]4CC[C@H](O)CC4)c3)c2C1` [SNX-2112], the remaining at 1 h, 1 µM [47] was 88%, the IC50 [11] was 52 nM and the Stability [48] was “Stable”. The IC50 [13] was 6 nM, the IC50 [14] was 3 nM and the solubility [49] was 170 µM (≈ 79 µg/mL). The IC50 [16] was 6 nM, the bioavailability [50] was 40% and the IC50 [17] was 18 nM. It also gave an IC50 [19] of 3 nM, an IC50 [20] of 53 nM and an IC50 [22] of 17 nM. The solubility [51] was 6 µM (≈ 2.79 µg/mL), the IC50 [28] was 23 nM and the IC50 [29] was 6 nM. It also gave a Kd [35] of 16 nM and an IC50 [41] of 3 nM.
